# Measured values as given in PMC10835732, “Pharmacokinetics of Hydroxytyrosol and Its Sulfate and Glucuronide Metabolites after the Oral Administration of Table Olives to Sprague-Dawley Rats” (Journal of Agricultural and Food Chemistry, 2024).
# “And” between values parts separate entries of the source, which are not always exact repeats. Identical values can stand only once. Like-named read-outs stand apart in the source and are kept apart here. Marks after values point to notes of the source that are not given here.
# What was measured:
# [1] = healthy volunteers, ref Goldberg et al. 26, cited from earlier work; for AUC: 10 Kalamata olives
# [2] = Plasma pharmacokinetics (noncompartmental analysis) after single oral administration of Arbequina table olives; format: in vivo, Sprague-Dawley rats; settings: for Cmax/D: D = dose of hydroxytyrosol in nmol; for AUC0–∞/D / AUCt/D: D in nmol; for AUCt: time zero up to 8 h; for Tmax: median (min, max); for k el: read-out: λz (apparent elimination rate constant) (converted); for Cmax: read-out: Peak plasma concentration (Cmax), text value with ± spread
# Experimental: The experiments were performed using Sprague–Dawley rats (n = 13) randomly divided into two groups, the 30 olives group (n = 6) that received the dose of 3.85 g/kg and the 60 olives group (n = 7), which was given the dose of 7.70 g/kg. The freshly prepared homogeneous suspensions were given to overnight fasted rats by oral gavage (18-gauge × 76 mm, ref FFSS-186-76, Instech Laboratories, Inc., Plymouth Meeting, PA). The volume of administration was 10 mL/kg. After the single administration of Arbequina table olives, blood was obtained at 30, 60, 90, 120, 240, 360, and 480 min from each animal. Samples were withdrawn from the lateral saphenous vein and placed into Microvette CB 300 K2 EDTA-K2 (Sarstedt, Granollers, Spain) coated tubes.[31] At each time point, 0.40 mL of blood was collected, meaning that a maximum of 2.4 mL was obtained from each animal. […] Blood corresponding to 480 min was taken by a cardiac puncture with the animal under terminal anesthesia. Plasma was immediately obtained by centrifugation at 1500g at 4 °C for 15 min (Centrifuge Megafuge 1.0R, Heraeus, Boadilla, Spain) and kept at −20 °C until analysis.
# Hydroxytyrosol and its metabolites in plasma were determined by liquid–liquid extraction followed by LC-MS/MS analysis as previously described.[11] Briefly, 200 μL of plasma was mixed with 10 μL of freshly prepared 10% ascorbic acid followed by 10 μL of 0.5% acetic acid and 10 μL of 2-(3-hydroxyphenyl) ethanol (10 μM, I.S.). Then, 2 mL of ethyl acetate was added to the samples that were vigorously mixed in a vortex (5 min), placed into an ultrasonic bath (10 min), and centrifuged at 1500g at 4 °C (15 min) (Centrifuge Megafuge 1.0R). A second extraction of the pellet with 2 mL of ethyl acetate was carried out. Subsequently, the two pooled supernatants were evaporated to dryness, reconstituted with 100 μL of 80% methanol, placed into amber vials, and immediately analyzed by LC-MS/MS.
# The plasmatic concentrations were calculated by the interpolation of the peak area ratio of hydroxytyrosol versus I.S. on a calibration curve. Calibration standards were constructed with blank plasma obtained by cardiac puncture from overnight fasted rats that had never received either table olives or hydroxytyrosol. […] Results were expressed in nmol per liter of plasma (nmol/L). The method was validated following the EMA guidelines[33] at six different concentrations ranging from 0 to 250 nmol/L analyzed on three different days.
# Individual PK of hydroxytyrosol and its metabolites were estimated from the plasma concentrations versus time profiles of each animal, through a noncompartmental analysis (NCA) with Phoenix-64 (Build 8.3.4.295, Certara, Princeton, N.J., USA). All concentrations of each pharmacokinetic profile were considered for NCA because the values obtained were above the LOQ. Peak plasma concentration (Cmax) and time to peak plasma concentration (Tmax) were determined by visual inspection of the pharmacokinetic profiles. The apparent elimination rate constant (λz) was estimated from the terminal slope of the semilogarithmic concentration–time curve. The apparent elimination half-life (t1/2λz) was calculated as t1/2z = 0.693/λz. The area under the plasma concentration–time curve from time zero to the last experimental time (AUCt) with analyte concentrations above the LOQ, was calculated by the linear-log trapezoidal rule. The area from time zero to infinity (AUC0–∞) was calculated by adding to the AUCt value the extrapolated area calculated as the ratio between the predicted concentration (Ct) at the last sampling time with concentrations above the LOQ and λz. The mean residence time (MRT0–∞) was given by the ratio of the area under the first-moment curve (AUMC0–∞) to the area under the zero-moment curve (AUC0–∞). The ratio indicating the relative exposure of each metabolite with respect to hydroxytyrosol (AUC0–∞m/AUC0–∞) was also calculated for all of the metabolites. […]
# [3] = ref Serra et al. 23, cited from earlier work
# [4] = 30 olives group (hydroxytyrosol 2.95 mg/kg oral), geometric mean (95% CI)
# [5] = 60 olives group (hydroxytyrosol 5.89 mg/kg oral), geometric mean (95% CI)
structure (smiles),measurement,setting,value
OCCc1ccc(O)c(O)c1 [hydroxytyrosol],Cmax,"[1]; 10 Kalamata olives with 389.87 mg hydroxytyrosol/kg, parent compound",0.64 nM
same,AUC,[1]; converted unit,0.65 nM·h
same,AUC,[1],0.65 nM·h
same,AUC0–∞,"[2]; 30 olives group (3.85 g olives/kg, hydroxytyrosol 2.95 mg/kg oral), geometric mean (95% CI)","4293 min·nmol/L and 4293 (3815, 4830)^a min·nmol/L"
same,Cmax/D,[2]; [4],"0.0044 (0.0026, 0.0077)^a"
same,AUC0–∞/D,[2]; [4],"0.8149 (0.7420, 0.8949)^a"
same,AUCt/D,[2]; [4],"0.6383 (0.5153, 0.7907)^a"
same,Vss/F (apparent steady-state volume of distribution),[2]; [4],"1139 (671.4, 1932)^a L/kg"
same,AUCt,[2]; [4],"3363 (2642, 4280)a min·nmol/L"
same,AUC0–∞,"[2]; 60 olives group (7.70 g olives/kg, hydroxytyrosol 5.89 mg/kg oral), geometric mean (95% CI)","8919 min·nmol/L and 8919 (6920, 11495)^b min·nmol/L"
same,Cmax/D,[2]; [5],"0.0039 (0.0028, 0.0053)^a"
same,AUC0–∞/D,[2]; [5],"0.7993 (0.6170, 1.035)^a"
same,AUCt/D,[2]; [5],"0.7091 (0.5407, 0.9300)^a"
same,Vss/F (apparent steady-state volume of distribution),[2]; [5],"882.8 (674.2, 1161)^a L/kg"
same,Tmax,[2]; 60 olives group (hydroxytyrosol 5.89 mg/kg oral),"41 (33, 68)^a min"
same,AUCt,[2]; [5],"7912 (6031, 10381)^b min·nmol/L"
same,half-life,"[2]; Sprague-Dawley, rat, plasma, oral, both doses, assuming first-order absorption, read-out: absorption half-life inferred from Cmax/AUC",2.1 to 2.4 h
same,CL/F,"[2]; Sprague-Dawley, rat, plasma, oral, both doses, read-out: Cl/F",~258 L/h/kg
same,Vd/F,"[2]; Sprague-Dawley, rat, plasma, oral, both doses, read-out: Vss/F or Vdarea/F",~1000 L/kg
same,Vd/F,"[2]; Sprague-Dawley, rat, plasma, po, 2.95 mg/kg, 30 olives group (hydroxytyrosol 2.95 mg/kg oral), geometric mean (95% CI), read-out: Vdarea/F (apparent volume of distribution, terminal phase)",1070 L/kg
same,Vd/F,"[2]; Sprague-Dawley, rat, plasma, po, 2.95 mg/kg, 30 olives group (hydroxytyrosol 2.95 mg/kg oral), geometric mean (95% CI), read-out: Vss/F (apparent steady-state volume of distribution)",1140 L/kg
same,half-life,"[2]; Sprague-Dawley, rat, plasma, po, 2.95 mg/kg, 30 olives group (hydroxytyrosol 2.95 mg/kg oral), geometric mean (95% CI), read-out: t1/2λz (apparent elimination half-life)",2.77 h
same,Tmax,"[2]; Sprague-Dawley, rat, plasma, po, 2.95 mg/kg, 30 olives group (hydroxytyrosol 2.95 mg/kg oral), read-out: Tmax (converted)",~1 h
same,Vd/F,"[2]; Sprague-Dawley, rat, plasma, po, 5.89 mg/kg, 60 olives group (hydroxytyrosol 5.89 mg/kg oral), geometric mean (95% CI), read-out: Vdarea/F (apparent volume of distribution, terminal phase)",678 L/kg
same,Vd/F,"[2]; Sprague-Dawley, rat, plasma, po, 5.89 mg/kg, 60 olives group (hydroxytyrosol 5.89 mg/kg oral), geometric mean (95% CI), read-out: Vss/F (apparent steady-state volume of distribution)",883 L/kg
same,half-life,"[2]; Sprague-Dawley, rat, plasma, po, 5.89 mg/kg, 60 olives group (hydroxytyrosol 5.89 mg/kg oral), geometric mean (95% CI), read-out: t1/2λz (apparent elimination half-life)",1.83 h
same,Tmax,"[2]; Sprague-Dawley, rat, plasma, po, 5.89 mg/kg, 60 olives group (hydroxytyrosol 5.89 mg/kg oral), read-out: Tmax (converted)",~0.667 h
same,half-life,"[2]; Sprague-Dawley, rat, plasma, po, both doses (30 and 60 olives groups), oral table olives, read-out: half-life (t1/2λz) (converted)",~2.5 h
same,CL/F,"[2]; Sprague-Dawley, rat, plasma, 30 olives group (hydroxytyrosol 2.95 mg/kg oral), geometric mean (95% CI), read-out: Cl/F (apparent clearance)",268 L/h/kg
same,MRT inf,"[2]; Sprague-Dawley, rat, plasma, 30 olives group (hydroxytyrosol 2.95 mg/kg oral), geometric mean (95% CI), read-out: MRT0–∞ (converted)",4.26 h
same,k el,"[2]; Sprague-Dawley, rat, plasma, 30 olives group (hydroxytyrosol 2.95 mg/kg oral), geometric mean (95% CI)",7e-05 s⁻¹
same,Cmax,"[2]; Sprague-Dawley, rat, plasma, 30 olives group (hydroxytyrosol 2.95 mg/kg oral)",23.4 ± 1.68 nM
same,CL/F,"[2]; Sprague-Dawley, rat, plasma, 60 olives group (hydroxytyrosol 5.89 mg/kg oral), geometric mean (95% CI), read-out: Cl/F (apparent clearance)",257 L/h/kg
same,MRT inf,"[2]; Sprague-Dawley, rat, plasma, 60 olives group (hydroxytyrosol 5.89 mg/kg oral), geometric mean (95% CI), read-out: MRT0–∞ (converted)",3.44 h
same,k el,"[2]; Sprague-Dawley, rat, plasma, 60 olives group (hydroxytyrosol 5.89 mg/kg oral), geometric mean (95% CI)",0.000105 s⁻¹
same,Cmax,"[2]; Sprague-Dawley, rat, plasma, 60 olives group (hydroxytyrosol 5.89 mg/kg oral)",43 ± 1.39 nM
same,MRT inf,"[2]; Sprague-Dawley, rat, plasma, both doses (30 and 60 olives groups), oral table olives, read-out: mean residence time (MRT0–∞)",~4 h
same,PK behaviour between doses (dose linearity),"[2]; between doses of 2.95 and 5.85 mg hydroxytyrosol/kg, noncompartmental analysis",linear PK
same,percentage of the AUC of each compound divided by the AUC of the sum of all of them,"[2]; both doses (similar ratios between doses), plasma",11%
same,share in rat plasma,[3]; after phenolic extract from olive cake containing 10.35 mg/kg of hydroxytyrosol,6%
same,Tmax,"[3]; sampling times limited to 1, 2 and 4 h",2 h
